From US20250296988A1, “COMBINATION THERAPY” (ViiV Healthcare Company, priority 2020, published 2025)

Experiments:
[1] = tested on: HIV-1NL4-3; experiment: Two-drug combination anti-HIV cytoprotection assay in MT-4 cells (MTS endpoint, MacSynergy II analysis); type: cell-based
Experimental: Provided below is an evaluation of the anti-HIV-1 activity and cytotoxicity of N6LS in two drug combination studies with Cabotegravir. N6LS was produced using standard methods described in the art. Stock solutions were prepared as listed in Table 4 and were thawed at room temperature on each day of assay setup to generate fresh working drug dilutions that were used that day in the assays. Working dilutions were not stored for re-use in subsequent experiments performed on different days. For each combination assay, N6LS was evaluated using a 20 nM high-test concentration with seven additional serial half-log dilutions. Each dilution of N6LS was tested in combination with five dilutions of the anti-HIV drug, Cabotegravir. In all cases the final DMSO concentration was <0.25%, which has been previously shown to have no effect in the described assays.
For cell preparation, MT-4 cells (obtained from the NIH AIDS Research and Reference Reagent Program) were passaged in T-75 flasks prior to use in the antiviral assay. On the day preceding the assay, the cells were split 1:2 to assure they were in an exponential growth phase at the time of infection. Total cell and viability quantification were performed using a hemacytometer and trypan blue exclusion. Cell viability needed to be greater than 95% for the cells to be utilized in the assay. The cells were re-suspended in tissue culture medium and added to the drug-containing microtiter plates in a volume of 110 μL and at a seeding density of 5.0×10^3 cells/well.
For virus preparation, the virus used for these tests was the CXCR4-tropic virus strain HIV-1NL4-3. This virus was obtained from the NIH AIDS Research and Reference Reagent Program and was grown in MT-4 cells for the production of stock virus pools. For each assay, a pre-titered aliquot of virus was removed from the freezer (−80° C.) and allowed to thaw slowly to room temperature in a biological safety cabinet. The virus was re-suspended and diluted into tissue culture medium such that the amount of virus added to each well, in a volume of 50 μL, was the amount determined to give between 85 to 95% cell-killing at 6 days post infection.
For Plate Format, a checkerboard plate format was used to test five concentrations of Cabotegravir with eight concentrations of N6LS. Combination antiviral efficacy was evaluated on three identical assay plates (i.e., triplicate measurements) that included cell control wells (cells only) and virus control wells (cells plus virus). Combination cytotoxicity was evaluated in parallel on two identical assay plates (i.e., duplicate measurements) that included cell control wells. Antiviral efficacy and cellular toxicity were monitored by MTS staining at the experimental endpoint.
For MTS Endpoint for cell viability, at assay termination, the soluble tetrazolium-based dye MTS (CellTiter 96 Reagent, Promega) was added to each well to determine cell viability and quantify compound toxicity. MTS is metabolized by the mitochondria enzymes of metabolically active cells to yield a soluble formazan product, allowing the rapid quantitative analysis of cell viability and compound cytotoxicity. […] At termination of the assay, 20 μL of MTS reagent was added per well and the microtiter plates were then incubated for 3-4 hours at 37° C., 5% CO2 for the HIV cytoprotection assay; the incubation intervals were chosen based on empirically determined times for optimal MTS reduction. Adhesive plate sealers were used in place of the lids, the sealed plates were inverted several times to mix the soluble formazan product and the plates were read spectrophotometrically at 490/650 nm with a Molecular Devices SpectraMax i3 plate reader.
Combination antiviral assays were performed with MT-4 cells utilizing HIV-1NL4-3, as described above. For each combination assay, five concentrations of Cabotegravir were tested with eight concentrations of N6LS. […]

[2] = tested on: broad range of HIV-1 strains; conditions: cited from earlier work
[3] = in combination with N6LS, 95% confidence values, experiment 1
[4] = in combination with N6LS, 95% confidence values, experiment 2
[5] = in combination with N6LS, 95% confidence values, experiment 3
[6] = in combination with N6LS, 95% confidence values, n = 3

For `C[C@H]1CO[C@@H]2Cn3cc(C(=O)NCc4ccc(F)cc4F)c(=O)c(O)c3C(=O)N12` [Cabotegravir, N-((2,4-Difluorophenyl)methyl)-6-hydroxy-3-methyl-5,7-dioxo-2,3,5,7,11,11a hexahydro (1,3) oxazolo (3,2-a)pyrido (1,2-d) pyrazine-8-carboxamide], the “Drug-drug interaction of the combination” value ([1]; combination of N6LS with Cabotegravir) was “mainly synergistic or additive interactions”, the “Antagonism Volume, Result 1” value [1, 3] was −45.27 nM^2% and the “Synergy Volume, Result 1” value [1, 3] was 2.32 nM^2%. For the same compound, the “Antagonism Volume, Result 2” value [1, 4] was 0 nM^2%, the “Synergy Volume, Result 2” value [1, 4] was 187.5 nM^2% and the “Antagonism Volume, Result 3” value [1, 5] was −39.56 nM^2%. For the same compound, the “Synergy Volume, Result 3” value [1, 5] was 61.7 nM^2%, the “Mean Antagonism Volume” value [1, 6] was −28.28 nM^2 and the “Mean Synergy Volume” value [1, 6] was 83.84 nM^2. For the same compound, the “potency and antiviral activity” value [2] was “subnanomolar potency”.
